Results on five molecules are retold here after patent publication US9783592B2 (priority 2010, dated 2017).

In one data set the target is T1, glucagon receptor (Homo sapiens, UniProt P47871).
T1 construct: expressed in transfected cells; host or cells: HEK293
Description: glucagon antagonist activity, reduction of glucagon-induced cAMP production in an in vitro assay. The settings on record: PLA at position 6 versus positions 4 and 5. The data set is classed as cell-based.

The target in data set [1] is T2, GLP-1 receptor (Homo sapiens, UniProt P43220).
T2 construct: expressed in transfected cells; host or cells: HEK293
T2 sequence (P43220 24-463, species assumed): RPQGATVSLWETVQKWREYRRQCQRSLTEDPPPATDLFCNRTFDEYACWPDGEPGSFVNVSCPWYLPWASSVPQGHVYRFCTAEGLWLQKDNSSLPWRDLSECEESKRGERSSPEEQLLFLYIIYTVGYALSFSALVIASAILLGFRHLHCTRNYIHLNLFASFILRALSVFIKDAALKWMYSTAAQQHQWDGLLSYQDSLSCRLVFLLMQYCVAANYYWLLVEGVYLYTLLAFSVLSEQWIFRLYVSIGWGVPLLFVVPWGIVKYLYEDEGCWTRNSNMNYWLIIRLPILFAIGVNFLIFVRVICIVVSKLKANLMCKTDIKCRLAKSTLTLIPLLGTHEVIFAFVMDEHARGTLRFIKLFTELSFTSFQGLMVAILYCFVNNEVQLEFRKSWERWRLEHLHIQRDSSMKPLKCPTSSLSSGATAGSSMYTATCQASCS
Description: GLP-1 receptor activation, cAMP induction in HEK293 cells over-expressing the receptor (luciferase reporter). The data set is classed as cell-based. On the technique in general: In a reporter assay the amount or activity of a reporter protein is the signal.

A short description of data set [2]: solubility in aqueous solution. The data set is classed as physicochemical.
Data set [3] can be described thus: Stability analysis in human plasma (estrogen release). Format: in vitro ADME. The settings on record: 1 mg/mL, 100% human plasma, pH 7.4, 37° C.
Data set [4] concerns the target T2, GLP-1 receptor. Description: GLP-1 activity (cAMP induction), CRE-luciferase reporter assay in HEK293 cells. Format: cell-based. The following applies: read-out: GLP-1 EC50; Example 22; HEK293 cells co-transfected with GLP-1 receptor and CRE-luciferase.
The target of data set [5] is T2, GLP-1 receptor. Description: GLP-1 binding, [I125]-GLP-1 SPA with receptor membrane extracts. The settings on record: read-out: GLP-1 IC50, Example 22, GLP-1 receptor cell membrane extracts.
The nature of data set [6]: Example 20: DIO mice, daily s.c. dosing. Format: in vivo.
Data set [7] has as its target T3, ERα (Homo sapiens, UniProt P03372). The settings on record: read-out: ERα IC50; purified ERα, [I125]-estradiol.
For data set [8], the target named is T3, ERα. The data set is classed as cell-based. On the set-up: T47D cells transfected with the luciferase gene fused to the estrogen response element (ERE); endogenous in cells; host or cells: T47D. The settings on record: T47D cells, ERE-luciferase.

T3 sequence (P03372 whole entry, the tested form may be a part): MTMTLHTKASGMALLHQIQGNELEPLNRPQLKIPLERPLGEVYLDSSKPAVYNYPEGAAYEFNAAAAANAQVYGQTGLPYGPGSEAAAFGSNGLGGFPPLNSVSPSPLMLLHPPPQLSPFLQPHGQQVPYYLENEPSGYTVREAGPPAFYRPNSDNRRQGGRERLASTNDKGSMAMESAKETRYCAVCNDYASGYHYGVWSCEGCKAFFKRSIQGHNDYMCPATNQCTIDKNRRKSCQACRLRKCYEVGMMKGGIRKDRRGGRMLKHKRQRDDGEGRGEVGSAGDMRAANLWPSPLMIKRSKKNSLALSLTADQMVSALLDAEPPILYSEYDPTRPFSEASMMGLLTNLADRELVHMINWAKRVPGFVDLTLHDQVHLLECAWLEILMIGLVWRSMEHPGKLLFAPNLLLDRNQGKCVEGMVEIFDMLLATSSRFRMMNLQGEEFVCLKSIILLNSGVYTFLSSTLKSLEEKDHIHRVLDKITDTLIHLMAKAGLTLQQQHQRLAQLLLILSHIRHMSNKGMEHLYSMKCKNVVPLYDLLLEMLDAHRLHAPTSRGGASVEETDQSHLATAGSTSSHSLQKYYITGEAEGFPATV
T1 sequence (P47871 26-477): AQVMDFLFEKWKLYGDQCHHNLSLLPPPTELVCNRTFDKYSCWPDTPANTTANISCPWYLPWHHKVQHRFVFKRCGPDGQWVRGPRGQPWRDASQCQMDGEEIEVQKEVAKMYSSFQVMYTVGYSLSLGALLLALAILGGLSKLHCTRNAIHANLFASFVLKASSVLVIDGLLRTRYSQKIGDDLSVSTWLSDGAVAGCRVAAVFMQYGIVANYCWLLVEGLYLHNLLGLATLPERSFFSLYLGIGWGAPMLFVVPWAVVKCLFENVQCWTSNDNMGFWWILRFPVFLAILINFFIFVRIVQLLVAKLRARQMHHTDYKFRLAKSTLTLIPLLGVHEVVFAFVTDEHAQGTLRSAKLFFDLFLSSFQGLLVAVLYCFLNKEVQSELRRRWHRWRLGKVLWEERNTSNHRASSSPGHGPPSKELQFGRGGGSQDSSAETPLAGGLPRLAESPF

On to “PLA6 analog: glucagon peptide, first 5 amino acids removed from the N-terminus, remaining N-terminal amino group replaced with a hydroxyl group”, for which the glucagon antagonist potency entry with glucagon receptor is listed as “appreciably more potent antagonist than glucagon analogs having a slightly extended N-terminus”.

With “SEQ ID NO: 22: glucagon analog in which the native glutamine at position 3 is substituted with glutamic acid”, the “selectivity for the GLP-1 receptor over the glucagon receptor” value with GLP-1 receptor [1] is listed as “approximately a tenfold selectivity for the GLP-1 receptor”.

Regarding `CSCC[C@H](NC(=O)[C@H](CC(C)C)NC(=O)[C@H](Cc1c[nH]c2ccccc12)NC(=O)[C@H](CCC(N)=O)NC(=O)[C@@H](NC(=O)[C@H](Cc1ccccc1)NC(=O)[C@H](CC(=O)O)NC(=O)[C@H](CCC(N)=O)NC(=O)[C@H](C)NC(=O)[C@H](CCCN=C(N)N)NC(=O)[C@H](CCCN=C(N)N)NC(=O)[C@H](CO)NC(=O)[C@H](CC(=O)O)NC(=O)[C@H](CC(C)C)NC(=O)[C@H](Cc1ccc(O)cc1)NC(=O)[C@H](CCCCN)NC(=O)[C@H](CO)NC(=O)[C@H](Cc1ccc(O)cc1)NC(=O)[C@H](CC(=O)O)NC(=O)[C@H](CO)NC(=O)[C@@H](NC(=O)[C@H](Cc1ccccc1)NC(=O)[C@@H](NC(=O)CNC(=O)[C@H](CCC(N)=O)NC(=O)[C@H](CO)NC(=O)[C@@H](N)Cc1c[nH]cn1)[C@@H](C)O)[C@@H](C)O)C(C)C)C(=O)N[C@@H](CC(N)=O)C(=O)N[C@H](C(=O)O)[C@@H](C)O` [Glucagon], the “solubility in aqueous solution” value in [2] is listed as “poor solubility in aqueous solution, particularly at physiological pH”.

Consider `CC[C@H](C)[C@H](NC(=O)[C@H](Cc1ccccc1)NC(=O)[C@H](CCC(=O)O)NC(=O)[C@H](CCCCN)NC(=O)[C@H](C)NC(=O)[C@H](C)NC(=O)[C@H](CCC(N)=O)NC(=O)[C@H](CCC(=O)O)NC(=O)[C@H](CCC(=O)O)NC(=O)[C@H](CC(C)C)NC(=O)[C@H](Cc1ccc(O)cc1)NC(=O)[C@H](CO)NC(=O)[C@H](CO)NC(=O)[C@@H](NC(=O)[C@H](CC(=O)O)NC(=O)[C@H](CO)NC(=O)[C@@H](NC(=O)[C@H](Cc1ccccc1)NC(=O)[C@@H](NC(=O)CNC(=O)[C@H](CCC(=O)O)NC(=O)C(C)(C)NC(=O)[C@@H](N)Cc1c[nH]cn1)[C@@H](C)O)[C@@H](C)O)C(C)C)C(=O)N[C@@H](C)C(=O)N[C@@H](Cc1c[nH]c2ccccc12)C(=O)N[C@@H](CC(C)C)C(=O)N[C@H](C(=O)N[C@@H](CCCCN)C(=O)NCC(=O)NCC(=O)N1CCC[C@H]1C(=O)N[C@@H](CO)C(=O)N[C@@H](CO)C(=O)NCC(=O)N[C@@H](C)C(=O)N1CCC[C@H]1C(=O)N1CCC[C@H]1C(=O)N1CCC[C@H]1C(=O)N[C@@H](CO)C(=O)N[C@@H](CCCCNC(=O)COc1ccc2c(c1)CC[C@@H]1[C@@H]2CC[C@]2(C)[C@@H](O)CC[C@@H]12)C(N)=O)C(C)C` [GLP-1/Estrogen(3-ether)], for which, in [3], the “estrogen release in plasma” value is given as “no estrogen release over 72 hours”.

In the case of `CC[C@H](C)[C@H](NC(=O)[C@H](Cc1ccccc1)NC(=O)[C@H](CCC(=O)O)NC(=O)[C@H](CCCCN)NC(=O)[C@H](C)NC(=O)[C@H](C)NC(=O)[C@H](CCC(N)=O)NC(=O)[C@H](CCC(=O)O)NC(=O)[C@H](CCC(=O)O)NC(=O)[C@H](CC(C)C)NC(=O)[C@H](Cc1ccc(O)cc1)NC(=O)[C@H](CO)NC(=O)[C@H](CO)NC(=O)[C@@H](NC(=O)[C@H](CC(=O)O)NC(=O)[C@H](CO)NC(=O)[C@@H](NC(=O)[C@H](Cc1ccccc1)NC(=O)[C@@H](NC(=O)CNC(=O)[C@H](CCC(=O)O)NC(=O)C(C)(C)NC(=O)[C@@H](N)Cc1c[nH]cn1)[C@@H](C)O)[C@@H](C)O)C(C)C)C(=O)N[C@@H](C)C(=O)N[C@@H](Cc1c[nH]c2ccccc12)C(=O)N[C@@H](CC(C)C)C(=O)N[C@H](C(=O)N[C@@H](CCCCN)C(=O)NCC(=O)NCC(=O)N1CCC[C@H]1C(=O)N[C@@H](CO)C(=O)N[C@@H](CO)C(=O)NCC(=O)N[C@@H](C)C(=O)N1CCC[C@H]1C(=O)N1CCC[C@H]1C(=O)N1CCC[C@H]1C(=O)N[C@@H](CO)C(=O)N[C@@H](CCCCNC(=O)CCC(=O)Oc1ccc2c(c1)CC[C@@H]1[C@@H]2CC[C@]2(C)[C@@H](OC(C)=O)CC[C@@H]12)C(N)=O)C(C)C` [GLP-1/Estrogen(3-ester)], the 50% effective concentration (EC50) on GLP-1 receptor [4] was found to be 0.014 ± 0.001 nM; on ERα [8] it was 0.013 ± 0.001 nM. The IC50 was 0.627 ± 0.046 nM at GLP-1 receptor [5] and 198 ± 16.8 nM at ERα [7]. The fat mass result in data set [6] (FIG. 9b) is “least amount of fat mass”. In addition, in [6] (s.c. once per day, after 7 days), the “change in body weight” value is listed as “greatest decrease in body weight”.

By EC50 is commonly meant the midpoint of the concentration-response curve. As usually defined, the IC50 is the concentration that gives 50% inhibition.
